In paper PMC12040169 (PLOS Biology, 2025):

Assay: in vitro
Details: human, hela cells, % viability

SMILES | viability at 28.5 h, 10 µM
O=C(NCCN1CCCC1)C1CCCN(c2nc3c(-c4ccccc4)csc3c(=O)[nH]2)C1 (centres unmarked) [CBK215507] | 109%
O=C(NCCN1CCOCC1)C1CCCN(c2nc3c(-c4ccccc4)csc3c(=O)[nH]2)C1 (centres unmarked) [CBK215509] | 106%
Cc1ccc(-c2csc3c(=O)[nH]c(N4CCCC(C(=O)NCC(N)=O)C4)nc23)cc1 (centres unmarked) [CBK215542] | 98.3%
Cc1ccc(-c2csc3c(=O)[nH]c(N4CCCC(C(=O)NCc5cccnc5)C4)nc23)cc1 (centres unmarked) [CBK215546] | 91.7%
COCCCNC(=O)C1CCCN(c2nc3c(-c4ccc(C)cc4)csc3c(=O)[nH]2)C1 (centres unmarked) [CBK215548] | 83.1%
O=C(C1CCCN(c2nc3c(-c4ccccc4)csc3c(=O)[nH]2)C1)N1CCOCC1 (centres unmarked) [CBK215582] | 83.7%
COc1cccc(CNC(=O)C2CCN(c3nc4c(-c5cccc(C)c5)csc4c(=O)[nH]3)CC2)c1 [CBK215603] | 84.9%
Cc1cccc(-c2csc3c(=O)[nH]c(N4CCC(C(=O)NCc5cccnc5)CC4)nc23)c1 [CBK215624] | 86.8%
Cc1cccc(-c2csc3c(=O)[nH]c(N4CCC(C(=O)NCCc5cccnc5)CC4)nc23)c1 [CBK215627] | 94%
COCCNC(=O)C1CCN(c2nc3c(-c4cccc(C)c4)csc3c(=O)[nH]2)CC1 [CBK215629] | 93.1%
O=[N+]([O-])c1ccc(Cl)cc1N/N=C1\CN2CCC1CC2 [CBK217272] | 108%
CC(=O)NC(Cc1c[nH]c2ccccc12)C(=O)O (centres unmarked) [CBK217373] | 95.9%
CCOC(=O)c1c(CSc2ccc(Cl)cc2)n(C)c2cc(Br)c(O)c(CN(C)C)c12 [CBK217489C] | 108%
CC(=O)c1c(C)n(O)c2ccc(Cl)cc2c1=O [CBK217746] | 107%
COc1ccc(-c2c(C(F)(F)F)oc3c(CN4CC(C)OC(C)C4)c(O)ccc3c2=O)cc1OC (centres unmarked) [CBK217829] | 100%
CCCCc1c(C(=O)O)cc(OC)cc1C(=O)O [CBK217866] | 93.5%
C[N+]1(C)CCCC1c1cc(Br)cnc1N (centres unmarked) [CBK217873I] | 90.8%
CC(C)(C)c1ccc(Oc2c(C(F)(F)F)oc3cc(OCC(=O)O)ccc3c2=O)cc1 [CBK217882] | 94.1%
CC(Cc1c[nH]c2ccccc12)NC(=O)CN (centres unmarked) [CBK218213C] | 100%
c1cncc(CN2CCN(Cc3c[nH]c4ccccc34)CC2)c1 [CBK218281] | 92.2%
COc1ccc(NC(=O)CSc2nc3c(N)ncnc3[nH]2)cc1 [CBK218441] | 91.4%
CC1NC(C(=O)O)Cc2c1[nH]c1ccccc21 (centres unmarked) [CBK218664] | 102%
O=C(O)COc1cccc2ccccc12 [CBK218704] | 106%
CC(=O)NC(CCCN=C(N)N)C(=O)O (centres unmarked) [CBK218726] | 107%
Cc1ccc2nc(NC3=NC(CC(=O)O)C(=O)N3)nc(C)c2c1 (centres unmarked) [CBK218806] | 90.3%
O=C(O)c1ccc(NC2OC(CO)C(O)C2O)cc1 (centres unmarked) [CBK218836] | 95.9%
NC(=O)NC(Cc1c[nH]c2ccccc12)C(=O)O (centres unmarked) [CBK218895] | 105%

SMILES | viability at 28.5 h, 10 µM
COc1cc2c(cc1OC)C(C(=O)O)CC(=O)N2 (centres unmarked) [CBK218955] | 87.4%
COc1cc(C2NC(C(=O)O)Cc3c2[nH]c2ccccc32)cc(OC)c1OC (centres unmarked) [CBK219193] | 101%
CCc1c(O)c2ccccc2n(Cc2ccccc2)c1=O [CBK219367] | 90%
Cc1nc2cc(C(=O)O)ccc2[nH]1 [CBK220035] | 84.6%
O=C(Nc1ccc2c(c1)OCCO2)c1cnccn1 [CBK220830] | 92.8%
O=C(CSc1nc2ccccc2o1)N1c2ccccc2Sc2ccccc21 [CBK221524] | 97.7%
Clc1ccc(SCc2cccc(CSc3ccc(Cl)c(Cl)c3)n2)cc1Cl [CBK223404] | 86.3%
O=C1c2ccccc2C(=O)N1CN(CCc1ccc(Cl)cc1)CN1C(=O)c2ccccc2C1=O [CBK225934] | 90.8%
CC(=O)Nc1ccc(NC(=O)CSCC(=O)O)cc1 [CBK226269] | 89.3%
NS(=O)(=O)c1ccc(CNS(=O)(=O)Cc2ccccc2)cc1 [CBK228048] | 87%
O=C(O)Cc1c[nH]c2ccccc12 [CBK228897G] | 102%
O=C(NCCc1c[nH]c2ccccc12)c1cccs1 [CBK231038] | 88.2%
O=C(O)CCCC(=O)Nc1ccccc1-c1ccccc1 [CBK231405] | 94.9%
Cc1ccc(OCc2cc(-c3ccco3)on2)c([N+](=O)[O-])n1 [CBK233261] | 98.8%
Cc1c(C(=O)C2=C(O)C(=O)N(Cc3cccnc3)C2c2ccncc2)cnn1-c1ccccc1 (centres unmarked) [CBK233899] | 114%
Cc1ccc(C2C(C(=O)c3sc(-c4ccccc4)nc3C)=C(O)C(=O)N2CCN(C)C)o1 (centres unmarked) [CBK234004] | 107%
Cc1oc(NC(=O)CN2CCN(c3ccccn3)CC2)c(C#N)c1C [CBK236456] | 96.9%
CC1(C)NC(=O)N(CCCC(=O)NCc2coc(-c3cccs3)n2)C1=O [CBK237157] | 105%
Cn1ncc2c(=O)n(Cc3nnsc3Cl)cnc21 [CBK237374] | 102%
Cc1nc(-c2ccc(CNC(=O)c3cc(=O)[nH]c4ccccc34)o2)cs1 [CBK238261] | 79.2%
O=C(c1ccco1)N1CCN(CC(=O)N2c3ccccc3OCC2c2ccccc2)CC1 (centres unmarked) [CBK239722] | 89.9%
CSCc1nnc(SCCC(=O)N2CCN(c3ccc(F)cc3)CC2)o1 [CBK240463] | 93.2%
COC(=O)c1cc(-c2c[nH]c3ccccc23)[nH]n1 [CBK241010] | 92.5%
CC(c1ccc(Cl)cc1Cl)N(C)C(=O)c1ccc(S(C)(=O)=O)cc1 (centres unmarked) [CBK242418] | 113%
CC(=O)N1CCCN(C(=O)Cn2cnc3ccc(F)cc3c2=O)CC1 [CBK245206] | 106%
CCOc1ncccc1NC(=O)C(C)n1cccn1 (centres unmarked) [CBK245377] | 105%
COCCN1CC2=C(C1=O)C(c1ccc(F)cc1)NC(=O)N2 (centres unmarked) [CBK249447] | 81.9%

SMILES | viability at 28.5 h, 10 µM
Cc1nn(C)c(C)c1CC(=O)Nc1nc(C(C)(C)C)cs1 [CBK250992] | 105%
CN(Cc1cnn(C)c1)C(=O)c1cc(O)nc2ccccc12 [CBK251706] | 106%
COc1ccc(CN2CCCN(C(=O)c3ccc(F)cc3Br)CC2)cc1 [CBK251752] | 88.1%
CC(=O)Nc1ccc(CNC(=O)c2ccc(C(F)(F)F)cn2)cc1 [CBK252121] | 92%
O=C(NCCNc1cnccn1)c1cc(Br)ccc1F [CBK253480] | 110%
Cc1ccc(C(=O)N2CCC(c3nc4ccccc4s3)CC2)cc1NS(C)(=O)=O [CBK254629] | 89.2%
CS(=O)(=O)c1ccc(C(=O)Nc2nccs2)cc1 [CBK255213] | 98.3%
COCC(=O)Nc1ccc(N2CCCC2=O)c(Cl)c1 [CBK256871] | 106%
COc1ccc(CN(C(=O)c2cccc(-n3cnnn3)c2)C2CC2)cc1 [CBK256997] | 91.6%
Cc1cc(NC(=O)CN(C)CC(=O)Nc2ccc(Br)cc2C)no1 [CBK260700] | 92.9%
C/C(=N/OCO/N=C(\C)c1cccc([N+](=O)[O-])c1)c1cccc([N+](=O)[O-])c1 [CBK260872] | 89%
CC(C)(C)c1cc(C(=O)O)[nH]n1 [CBK260874] | 103%
NC(CCC(=O)O)C(=O)O (centres unmarked) [CBK260875C] | 97.3%
O=C(NNc1ccccc1)c1c(O)c2ccccc2oc1=O [CBK260878] | 75.1%
CC(C)(C)S(=O)(=O)c1ccc(C(=O)O)s1 [CBK260880] | 91.4%
O=C(C[n+]1ccc(CCSCc2ccc3c4c(cccc24)CC3)cc1)c1ccc2c3c(cccc13)CC2 [CBK260881B] | 96.4%
CCC(C)c1cc([N+](=O)[O-])cc([N+](=O)[O-])c1OC(=O)OC(C)C (centres unmarked) [CBK260882] | 99.2%
Cc1ccc(C2N(Cc3ccccc3)CCN2Cc2ccccc2)o1 [CBK260883] | 98.3%
C(=N\c1ccc(Cc2ccc(/N=C/c3cccnc3)cc2)cc1)/c1cccnc1 [CBK260884] | 95%
c1ccc(CN2CCN(Cc3ccccc3)C2c2cccnc2)cc1 [CBK260885] | 93.2%
CC(=O)Nc1ccc(Nc2ccc([N+](=O)[O-])cc2[N+](=O)[O-])cc1 [CBK260886] | 84.6%
c1ccc(CN2CCN(Cc3ccccc3)C2c2ccco2)cc1 [CBK260888] | 99.6%
O=C(O)CCC(=O)Nc1cccc2ccccc12 [CBK260889] | 112%
CC(C)(C)C1CCC(OC(=O)CCC(=O)Nc2nccs2)CC1 (centres unmarked) [CBK260890] | 96.9%
O=C(CCSS(=O)(=O)O)N1CCc2ccccc21 [CBK260892N] | 94.4%

Same assay, conditions: human, hela cells, % viability, bulk resorufin, single well

SMILES | viability at 28.5 h, 10 µM
O=C1NC(=O)C(=Cc2ccc(-c3ccc([N+](=O)[O-])cc3)o2)C(=O)N1 [CBK229904] | 114%
